# Reference: patent US12247004B2, “2-amino-N-(amino-oxo-aryl-lambda6-sulfanylidene)acetamide compounds and their therapeutic use” (Oxford Drug Design Limited, priority 2019, dated 2025)
# Counter-ions that a name gives are not always drawn. Like-named read-outs stand apart in the source and are kept apart here.
# Assays:
# [1] = Human cell viability / cytotoxicity (CellTiter-Glo, 24 hours); assay type: cell-based; conditions: human, HepG2 cells (ATCC HB-8065); HepG2 ATCC HB-8065, 24 hours; read-out: Cytotoxicity in HepG2 ATCC HB-8065 Cell Line, IC50
# Description: Study 3—Human Cell Viability
# Compounds were assessed for potential non-specific cytotoxic effects against a human hepatic cell line (HepG2 ATCC HB-8065). 96-well plates were seeded with HepG2 cells in concentration of 15,000 cells per well in 100 μL of MEM growth media completed with 1% NEAA and 1% sodium pyruvate. Border wells were filled with 100 μL of sterile PBS. Two days upon cells incubation, the compounds were added. Compound dilutions were prepared in 96-well V-bottom plate in pure DMSO. Growth media from 5 plates were aspirated and replaced with 98.7 μL of fresh growth media. 1.28 μL of compounds prepared in V-bottom plates were transferred with multichannel pipette into test plates (78.1× dilution). Final DMSO concentration was 1.28% per well. In control wells, 1.28 μL of DMSO was added in 98.7 μL of media. Compounds were tested in duplicates. Cells were incubated with compounds for 24 hours when cell viability was assessed by measuring ATP levels. ATP levels were measured by adding 50 μL of CellTiter-Glo reagent to each well and after 5 minutes of incubation luminescence was measured with SpectraMax i3. The potential effect of tested compounds on cell viability was determined by comparing the signal obtained in presence of different concentrations of the compounds with those obtained in the presence of DMSO only. The potential effects were then calculated and presented as IC50 values (μg/mL).
# [2] = target: Leucyl-tRNA synthetase (LeuRS) (Escherichia coli (strain K12), UniProt P07813); test: Leucyl-tRNA synthetase enzyme inhibition (AMP-Glo; single point % inhibition at 100 μM and IC50); assay type: biochemical
# Source text: Study 1—Enzyme Inhibition
# The aminoacylation reaction catalyzed by aminoacyl-tRNA synthetases (aaRS) takes place in two steps. In the first step, aaRS activates its cognate amino acid with ATP; and in the second step the activated amino acid is loaded to its corresponding tRNA. This reaction can be summarized as follows: aaRS+aa+ATP=aaRS-aa-AMP+PPi aaRS-aa-AMP+tRNA=aa-tRNA+AMP+aaRS
# wherein: aaRS, aminoacyl-tRNA synthetase; aa, amino acid; aaRS-aa-AMP, enzyme-bound to aminoacyl-adenylate; AMP, adenosine monophosphate; aa-tRNA, aminoacyl-tRNA, PPi, inorganic pyrophosphate.
# a. Single Point Percentage Inhibition
# The activity of the pathogenic aaRSs was monitored by measuring AMP production using the commercial kit AMP-Glo (Promega, Madison, USA).
# Ligand stock solutions were prepared in 100% DMSO at 10 mM concentration. An assay buffer consisting of 100 mM Tris HCl pH 7.6, 40 mM MgCl, 20 mM KCl and 150 mM NaCl was prepared in dH2O.
# Using the same enzymatic assay in a 384-well plate format, ten point concentration response curves were generated for each compound using a top concentration of 10 μM. The known inhibitor LeuAMS was used as a positive control for the LeuRS assay. 100% DMSO was used as a negative control. The IC50 was calculated based on non-linear regression analysis.
# [3] = tested on: bacteria (ATCC reference strains); test: Antibacterial activity, MIC by broth micro-dilution (CLSI)
# [4] = E. coli LeuRS, read-out: Enzyme Inhibition - IC50, E. coli LeuRS
# Sequence of Leucyl-tRNA synthetase (LeuRS) (P07813 whole entry, looked up): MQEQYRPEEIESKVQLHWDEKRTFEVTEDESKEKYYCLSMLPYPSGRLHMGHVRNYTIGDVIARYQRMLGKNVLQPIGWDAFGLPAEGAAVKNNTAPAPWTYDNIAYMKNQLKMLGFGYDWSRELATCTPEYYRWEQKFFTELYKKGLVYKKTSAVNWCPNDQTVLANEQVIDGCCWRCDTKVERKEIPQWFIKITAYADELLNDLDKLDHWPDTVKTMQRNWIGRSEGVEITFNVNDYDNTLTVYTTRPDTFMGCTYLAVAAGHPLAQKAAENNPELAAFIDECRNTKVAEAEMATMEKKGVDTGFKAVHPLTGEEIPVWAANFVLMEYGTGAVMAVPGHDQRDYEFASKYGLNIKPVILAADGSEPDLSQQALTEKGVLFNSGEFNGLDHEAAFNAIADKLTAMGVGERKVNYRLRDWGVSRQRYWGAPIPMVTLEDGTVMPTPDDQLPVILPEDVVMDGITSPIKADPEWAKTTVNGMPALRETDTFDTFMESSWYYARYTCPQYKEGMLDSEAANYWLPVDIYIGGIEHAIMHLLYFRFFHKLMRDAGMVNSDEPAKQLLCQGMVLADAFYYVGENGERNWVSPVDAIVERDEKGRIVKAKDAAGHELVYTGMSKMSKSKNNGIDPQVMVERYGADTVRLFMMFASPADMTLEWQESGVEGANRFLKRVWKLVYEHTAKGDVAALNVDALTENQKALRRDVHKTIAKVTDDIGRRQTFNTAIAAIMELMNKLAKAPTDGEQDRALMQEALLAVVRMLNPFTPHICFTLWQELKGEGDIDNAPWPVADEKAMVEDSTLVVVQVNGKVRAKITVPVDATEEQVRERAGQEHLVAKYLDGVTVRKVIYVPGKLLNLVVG
structure (smiles),measurement,setting,value
"CC(C)C[C@H](N)C(=O)N=[S@@](N)(=O)c1ccccc1 [ANASIA-003-2, (S)-2-amino-N—((R)-amino(oxo)(phenyl)-λ6-sulfanylidene)-4-methylpentanamide hydrochloride]",IC50 at 24 h,[1],> 64 µg/mL
same,IC50,[2]; [4],2260 nM
Cc1cccc([S@@](N)(=O)=NC(=O)[C@@H](N)CC(C)C)c1 [ANASIA-005-1],IC50 at 24 h,[1],> 64 µg/mL
same,IC50,[2],3030 nM
CC(C)C[C@H](N)C(=O)N=[S@](N)(=O)c1cccc(C(C)(C)C)c1 [ANASIA-049-1],IC50 at 24 h,[1],> 64 µg/mL
same,IC50,[2],296 nM
CC(C)C[C@H](N)C(=O)N=[S@@](N)(=O)c1ccsc1 [ANASIA-008-2],IC50 at 24 h,[1],> 64 µg/mL
same,IC50,[2]; [4],2000 nM
CC(C)C[C@H](N)C(=O)N=[S@@](N)(=O)c1cccc2ccccc12 [ANASIA-016-2],IC50 at 24 h,[1],> 64 µg/mL
same,IC50,[2]; [4],5560 nM
CC(C)C[C@H](N)C(=O)N=[S@](N)(=O)c1ccc(Cl)c(Cl)c1 [ANASIA-042-1],IC50 at 24 h,[1],> 64 µg/mL
same,IC50,[2],1110 nM
CC(C)C[C@H](N)C(=O)N=[S@](N)(=O)c1ccc(C(F)F)s1.Cl [ANASIA-017-1],MIC,"[3]; Acinetobacter baumannii, read-out: Antibacterial Activity (MIC), E = A. baumannii B1931",> 64 µg/mL
same,MIC,"[3]; Escherichia coli, ATCC25922, read-out: Antibacterial Activity (MIC), A = E. coli ATCC 25922",4 µg/mL
same,MIC,"[3]; Escherichia coli, BAA2469, read-out: Antibacterial Activity (MIC), G = E. coli BAA-2469",22.6 µg/mL
same,MIC,"[3]; Haemophilus influenzae, ATCC49247, read-out: Antibacterial Activity (MIC), F = H. influenzae ATCC 49247",4 µg/mL
same,MIC,"[3]; Klebsiella pneumoniae, ATCC700603, read-out: Antibacterial Activity (MIC), C = K. pneumoniae ATCC 700603",> 256 µg/mL
same,MIC,"[3]; Pseudomonas aeruginosa, ATCC27853, read-out: Antibacterial Activity (MIC), D = P. aeruginosa ATCC 27853",> 64 µg/mL
same,IC50 at 24 h,[1],> 64 µg/mL
CC(C)C[C@H](N)C(=O)N=[S@](N)(=O)c1cccc(-c2ccccc2)c1 [ANASIA-018-1],IC50 at 24 h,[1],> 64 µg/mL
same,IC50,[2],223 nM
CC[C@H](C)[C@H](N)C(=O)N=S(N)(=O)c1ccc2ccccc2c1 (stereo partly drawn) [ANASIA-030],IC50 at 24 h,[1],> 64 µg/mL
CC(C)C[C@H](N)C(=O)N=[S@@](N)(=O)c1c(F)cccc1F [ANASIA-026-2],IC50 at 24 h,[1],> 64 µg/mL
same,IC50,[2]; [4],4420 nM
CC(C)C[C@H](N)C(=O)N=S(N)(=O)c1csc(Cl)c1 (mixture of isomers) [ANASIA-099],IC50 at 24 h,[1],> 64 µg/mL
same,IC50,[2],72.2 nM
Cc1ccsc1[S@](N)(=O)=NC(=O)[C@@H](N)CC(C)C [ANASIA-015-2],IC50 at 24 h,[1],> 64 µg/mL
same,IC50,[2]; [4],1860 nM
Cc1cc(F)ccc1[S@@](N)(=O)=NC(=O)[C@@H](N)CC(C)C [ANASIA-027-1],IC50 at 24 h,[1],> 64 µg/mL
same,IC50,[2],4530 nM
CC(C)C[C@H](N)C(=O)N=[S@](N)(=O)c1cccc(F)c1 [ANASIA-011-1],IC50 at 24 h,[1],> 64 µg/mL
CC(C)C[C@H](N)C(=O)N=S(N)(=O)c1ccc(Cl)c2ccccc12 (stereo partly drawn) [ANASIA-019],IC50 at 24 h,[1],> 64 µg/mL
same,IC50,[2]; [4],2260 nM
CC(C)C[C@H](N)C(=O)N=[S@@](N)(=O)c1cccc(F)c1 [ANASIA-011-2],IC50 at 24 h,[1],> 64 µg/mL
Cc1cnc(S(N)(=O)=NC(=O)[C@@H](N)CC(C)C)s1 (stereo partly drawn) [ANASIA-039],IC50 at 24 h,[1],> 64 µg/mL
same,IC50,[2]; [4],8830 nM
CC(C)C[C@H](N)C(=O)N=[S@@](N)(=O)c1cccc(C(C)C)c1 [ANASIA-043-2],IC50 at 24 h,[1],> 64 µg/mL
same,IC50,[2]; [4],735 nM
CC(C)C[C@H](N)C(=O)N=[S@@](N)(=O)c1cc(F)ccc1F [ANASIA-024-2],IC50 at 24 h,[1],> 64 µg/mL
same,IC50,[2]; [4],6280 nM
Cc1ccc([S@](N)(=O)=NC(=O)[C@@H](N)CC(C)C)s1 [ANASIA-014-2],IC50 at 24 h,[1],> 64 µg/mL
same,IC50,[2]; [4],3980 nM
CC(C)C[C@H](N)C(=O)N=[S@](N)(=O)c1ccc(Cl)s1 [ANASIA-009-1],IC50 at 24 h,[1],> 64 µg/mL
same,IC50,[2],1830 nM
CC(C)C[C@H](N)C(=O)N=[S@@](N)(=O)c1cccc(Cl)c1F [ANASIA-001-2],IC50 at 24 h,[1],> 64 µg/mL
same,IC50,[2]; [4],3530 nM
CC(C)C[C@H](N)C(=O)N=S(N)(=O)c1cc2ccccc2s1 (stereo partly drawn) [ANASIA-023],IC50 at 24 h,[1],> 64 µg/mL
same,IC50,[2],1290 nM
